Reference: patent US20210009542A1 (Calico Life Sciences LLC, priority 2018, published 2021)
Read-outs that look alike come from different tables or passages of the source.

Columns and labels:
[1] = target: T1, His tagged PTPN2 (TC45) protein (Homo sapiens, UniProt P17706); test: Mobility shift assay (MSA) for potency of PTPN2 inhibitors; format: biochemical; conditions: read-out: PTPN2 MSA IC50
T1 construct: made in house
T1 sequence (P17706 with tags, fused parts or gaps isoform P17706-2): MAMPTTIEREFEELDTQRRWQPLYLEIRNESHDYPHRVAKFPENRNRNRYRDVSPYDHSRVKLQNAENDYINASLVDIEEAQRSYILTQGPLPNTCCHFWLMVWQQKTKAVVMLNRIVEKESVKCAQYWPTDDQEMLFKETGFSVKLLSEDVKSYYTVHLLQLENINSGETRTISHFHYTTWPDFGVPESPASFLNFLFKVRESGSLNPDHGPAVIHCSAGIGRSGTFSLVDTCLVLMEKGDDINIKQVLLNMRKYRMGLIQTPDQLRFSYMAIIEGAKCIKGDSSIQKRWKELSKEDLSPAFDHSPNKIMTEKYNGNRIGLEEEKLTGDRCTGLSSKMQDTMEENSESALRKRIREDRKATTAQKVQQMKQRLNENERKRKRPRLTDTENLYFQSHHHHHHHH
In short: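 His-tagged PTPN2 TC45 (0.5 nM) was preincubated with compound (12-point, 1:3) for 10 min at room temperature in 50 mM HEPES pH 7.5, 1 mM EGTA, 10 mM EDTA, 0.01% Tween 20, 2 mM DTT. OG488-labelled phospho-insulin-receptor peptide ([…]) was then added for 10 min. After quenching, dephosphorylation was measured by microfluidic mobility shift and IC50 derived from % inhibition.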

[2] = system: Pan T cells isolated from C57BL6 splenocytes; test: T cell activation assay (flow cytometry, CD25/CD69 on CD8 T cells); format: cell-based, mouse; conditions: for % CD25 within CD8+ / % CD69 within CD8+ / CD25 MFI / CD69 MFI: 30 μM compound, 2 days; for T cell activation and T cell function: with TCR stimulation
Experimental: (§1) Pan T cells were isolated from C57BL6 splenocytes using a MACS Pan T cell isolation kit II (Miltenyi Biotec, Auburn, Calif.) according to the manufacturer's instructions. Isolated T cells (200,000 cells/well in a 96 well flat-bottom plate) were cultured in RPMI 1640 supplemented with 10% FBS, […] 2-mercatoethanol, 100 U/mL penicillin, and 100 μg/mL streptomycin, and incubated with the indicated concentration of compound or DMSO in duplicates. After 1 hour, mouse T cell activator CD3/CD28 Dynabeads (ThermoFisher Scientific, Waltham, Mass.) were added at a 1:5 beads to cells ratio to stimulate the T cells for 2 or 3 days as outlined below. T cells with or without compound were incubated in the absence of T cell activator beads (media only) as control.
After 2 days of stimulation, activation status of T cells was assessed by flow cytometry. T cells were first subjected to Zombie Violet™ Fixable Viability dye (BioLegend, San Diego, Calif.) for dead cell exclusion, washed and then stained with BUV805 labeled anti-CD8, APC-R700 labeled anti-CD25 (both from BD Biosciences, San Jose, Calif.) and PE labeled anti-CD69 (BioLegend, San Diego, Calif.) antibodies. After staining, cells were fixed with 2% paraformaldehyde and acquired on a BD LSRFortessa™ X-20 flow cytometer (BD Biosciences, San Jose, Calif.) using BD FACSDiva™ software. Data was analyzed using FlowJo V10 (Flow Jo LLC, Ashland, Oreg.). Dead cells were excluded and frequencies of activated CD8 T cells was reported as the frequency of CD25+ or CD69+ cells within the CD8+ population. The expression level of CD25 and CD69 indicates the activation status of cells on a per cell basis and was evaluated by the mean fluorescence intensities (MFI) of CD25 and CD69.

[3] = system: B16F10 mouse melanoma cells; test: B16F10 IFNγ-induced cellular growth inhibition assay; format: cell-based; conditions: Mus musculus, B16-F10, 33 μM compound
In short: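 B16F10 cells (500/well, DMEM + 10% FBS) dosed in triplicate at 100 μM to 0.001 μM (0.1% DMSO) with or without 0.5 ng/mL final mouse IFNγ. Confluence imaged every 6 h for 5 days; % growth inhibition calculated versus DMSO/with-IFNγ control once DMSO/no-IFNγ wells exceeded 95% confluence.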

[4] = system: Pan T cells isolated from C57BL6 splenocytes; test: T cell function assay (IFNγ and TNFα in supernatants, MSD V-plex); format: cell-based, mouse; conditions: 30 μM compound, 3 days, supernatant
Experimental: as §1
After 3 days of stimulation, supernatants were collected and IFNγ and TNFα in supernatants were assessed using an MSD V-plex assay (Meso Scale Discovery, Rockville, Md.).

[5] = anti-CD3/anti-CD28 Dynabeads (1:5 beads:cells)
[6] = +0.5 ng/mL IFNγ, relative to DMSO control, read-out: % B16F10 growth inhibition (+0.5 ng/mL IFNγ) @ 33 μM
[7] = no IFNγ, read-out: % B16F10 growth inhibition (no IFNγ) @ 33 μM

| Structure (SMILES) | IC50 [1] [nM] | % CD25 within CD8+ [2, 5] [%] | % CD69 within CD8+ [2, 5] [%] | CD25 MFI [2, 5] | CD69 MFI [2, 5] | % CD25 within CD8+ ([2]; no TCR stimulation) [%] | % CD69 within CD8+ ([2]; no TCR stimulation) [%] | CD25 MFI ([2]; no TCR stimulation) | CD69 MFI ([2]; no TCR stimulation) | T cell activation and T cell function [2] | inhibition at 33 µM [3, 6] [%] | inhibition at 33 µM [3, 7] [%] | IFNγ [4, 5] [ng/mL] | TNFα [4, 5] [ng/mL] | IFNγ ([4]; no TCR stimulation) [ng/mL] | TNFα ([4]; no TCR stimulation) [ng/mL] |
| --- | --- | --- | --- | --- | --- | --- | --- | --- | --- | --- | --- | --- | --- | --- | --- | --- |
| O=C1CN(c2c(O)cc3ccc(OC(F)F)cc3c2F)S(=O)(=O)N1 [Compound 260, 5-[7-(difluoromethoxy)-1-fluoro-3-hydroxynaphthalen-2-yl]-1λ^6,2,5-thiadiazolidine-1,1,3-trione] | 1 to 10 | 39.60 | 61.65 | 1085 | 464.5 | 0.29 | 0.17 | 28.3 | 10.2 | increased both T cell activation and T cell function | 25 to 59 | < 25 | 752 | 207 | 3.8 | 2.1 |
| O=C1CN(c2c(O)cc3ccc(C4=CCN(S(=O)(=O)C5CC5)C4)cc3c2F)S(=O)(=O)N1 [Compound 113, 5-{7-[1-(cyclopropanesulfonyl)-2,5-dihydro-1H-pyrrol-3-yl]-1-fluoro-3-hydroxynaphthalen-2-yl}-1λ^6,2,5-thiadiazolidine-1,1,3-trione] | < 1 | 44.55 | 73.95 | 1265 | 1891 | 0.49 | 0.24 | 51.7 | 28.8 | increased both T cell activation and T cell function | > 90 | < 25 | 356 | 208 | 1.2 | 1.5 |
